A short description of series [1]: Serum pharmacokinetics in rats after consumption of 500 mg/kg BW of BF extracts. In kind it is in vivo, SD rats. Conditions: for Detection in rat plasma/blood after administration of BF extracts: 500 mg/kg BW BF extracts. The procedure:
(§1) A total of 24 male SD rats aged between 6 and 8 weeks (200–220 g) were acquired from the Laboratory Animal Center of Jiangxi University of Chinese Medicine (Nanchang, China). Prior to experimentation, the rats were acclimated for 7 days in an air-conditioned room maintained at 24 ± 1 °C with a 12 h light/dark cycle. During this period, they had free access to food and water. After adaptive feeding, rats were randomly divided into three groups (n = 8), including a negative control, serum collection, and urine collection groups. […] To establish baseline data, blood samples were collected from all rats before administering the BF extracts. Blood was collected from the orbits at 15 min, 30 min, 1 h, 1.5 h, 2 h, 4 h, 6 h, 8 h, and 10 h after drug administration. Urine was collected at 6, 12, and 24 h after administration. Pretreatment of serum and urine samples was according to our previous study. The animal experiments were approved by the Animal Ethics Committee of Jiangxi University of Chinese Medicine (TEMPOR20230112).
The quantification of substances identified was performed using an AB TRIPLE QUAD 4500 HPLC-MS2 (AB SCIEX, Framingham, MA, USA) system equipped with a C18 column (2.1 × 100 mm, 1.7 μm particle size; ACQUITY) at room temperature (25 °C). The mobile phase consisted of A (water containing 0.2% formic acid, v/v) and B (acetonitrile containing 0.2% formic acid, v/v) and the following binary program was used: 0–3 min, 5% B; 3–4 min, 95% B; 4–4.1 min, 95–5% B; 4.1–6.0 min, 5% B. The flow rate was 0.3 mL/min, and the injection volume was 10 μL. For sensitive detection and quantification, the analysis employed electrospray ionization (ESI) followed by multiple reaction monitoring (MRM) to selectively monitor the fragmentation patterns of the target analytes. Data acquisition and processing were performed with Qualbrowser.
Blood concentration/time data analysis was performed by non-compartment model analysis and processed using Peak View®1.6 (AB SCIEX), according to a previous publication. All data are presented as mean ± standard deviation (SD). The maximum plasma concentration (Cmax), and the time to reach the maximum plasma concentration (tmax) was calculated from the observed values.

A short description of series [2]: Identification of prototypes and metabolites in rat serum and urine by UPLC-LTQ-Orbitrap-MS2 after BF extracts. It is filed as in vivo, SD rats. Conditions: for Location: rat serum or urine after 500 mg/kg BW BF extracts, UPLC-LTQ-Orbitrap-MS2; for Detected in serum and/or urine: rat, after gavage of BF extracts.
Excerpt: as §1, with “Prior to experimentation, the rats were acclimated for 7 days in an air-conditioned room maintained at 24 ± 1 °C with a 12 h light/dark cycle.” left out, “Blood was collected from the orbits at 15 min, 30 min, 1 h, 1.5 h, 2 h, 4 h, 6 h, 8 h, and 10 h after drug administration. Urine was collected at 6, 12, and 24 h after administration.” left out
The metabolic profile from blood and urine samples were conducted by UPLC-LTQ-Orbitrap-MS2 (Thermo Scientific, Bremen, Germany) according to previously published methods. The samples were prepared by SPE, centrifuged at 4 °C and 2000 rpm, and stored at −80 °C. […] The LTQ-Orbitrap-MS2 was operated in negative mode with a scan range of 50–2000 m/z. A data-dependent scan with CID was performed for fragmentation. The collision energy was set at 45 eV. Data acquisition and processing were performed with Xcalibur v.2.0 software (Thermo Fisher, San Jose, CA, USA) and Qualbrowser.

Details of series [3]: method as in PMID 16848510. As to conditions: cited from earlier work.
Setting [4] is: male, SD, rat serum, oral 500 mg/kg BW BF extracts, n = 8.
Setting [5] is: rat serum, oral 500 mg/kg BW BF extracts, n = 8.

Like-named read-outs stand apart in the source and are kept apart here.

Usually Cmax stands for the highest concentration seen after dosing. As a reminder, the half-life is the time needed for the level to fall by half in the phase considered. A low value points to rapid decline. On to `O=C(O)c1ccc(O)cc1` [4-Hydroxybenzoic acid, 4-hydroxybenzoic acid], for which the AUC(0-t) in series [1] (male, SD, rat serum, oral 500 mg/kg BW BF extracts, 0 to 10 h, n = 8, read-out: AUC0-10) amounted to 0.0313 ± 0.00191 µM·h. In series [1] (setting [4]), this compound gave a Cmax of 6.98 ± 0.805 nM and a half-life of 389 ± 310 min. In addition, the tmax in series [1] (male, SD, rat serum, oral 500 mg/kg BW BF extracts, n = 8, read-out: tmax) came to 1 h. Further, the “Detection in rat plasma/blood after administration of BF extracts” value (shortened to “Detection in rat plasma/blood”) in series [1] was “detected”.
Turning to `OC[C@H]1O[C@@H](Oc2cc3c(O)cc(O)cc3[o+]c2-c2cc(O)c(O)c(O)c2)[C@H](O)[C@@H](O)[C@@H]1O` [Delphinidin 3-glucoside, delphinidin 3-glucoside], the AUC0-10 in series [1] (rat serum, oral 500 mg/kg BW BF extracts, 0 to 10 h, n = 8) worked out at 54.654 ± 9.089 nmol·h/L. In series [1] (setting [5]), this compound had a Cmax of 51.6 ± 3.2 nM, a t1/2 of 1.639 ± 0.271 h and a tmax of 0.5 h. Besides, in series [1], the “Detection in rat plasma/blood” value is on record as “detected”. Besides, in series [2], the Location result is “S, U”; the “Detected in serum and/or urine” value was “both serum and urine”.
`O=C(O)c1ccc(O)c(OC2OC(C(=O)O)C(O)C(O)C2O)c1` (stereo not shown) [M11, PCA-3-glucuronide]: the Location entry in series [2] is listed as “S”.
Turning to `COc1cc(C(=O)O)ccc1O[C@@H]1O[C@H](C(=O)O)[C@@H](O)[C@H](O)[C@H]1O` [M12, VA-4-glucuronide], the Location entry in series [2] is “S”.
Still for that read-out and setting: the value for `O=C(O)c1ccc(O[C@@H]2O[C@H](C(=O)O)[C@@H](O)[C@H](O)[C@H]2O)c(O)c1` [M13, PCA-4-glucuronide] was “S, U”.
On the same count and under the same terms, then `Oc1cc(O)c2cc(O)c(-c3cc(O)c(O)c(O)c3)[o+]c2c1` [M16, delphinidin], with “S, U”.
With `C[C@@H]1O[C@@H](OC[C@H]2O[C@@H](Oc3c(-c4ccc(O)c(O)c4)oc4cc(O)cc(O)c4c3=O)[C@H](O)[C@@H](O)[C@@H]2O)[C@H](O)[C@H](O)[C@H]1O` [rutin], in series [2], the “Detected in serum and/or urine” value is “exclusively in urine”.
Take `O=C([O-])CC(=O)OC[C@H]1O[C@@H](Oc2cc3c(O)cc(O)cc3[o+]c2-c2cc(O[C@@H]3O[C@H](COC(=O)/C=C/c4ccc(O[C@@H]5O[C@H](COC(=O)/C=C/c6ccc(O)cc6)[C@@H](O)[C@H](O)[C@H]5O)cc4)[C@@H](O)[C@H](O)[C@H]3O)c(O)c(O[C@@H]3O[C@H](COC(=O)/C=C/c4ccc(O[C@@H]5O[C@H](COC(=O)/C=C/c6ccc(O)cc6)[C@@H](O)[C@H](O)[C@H]5O)cc4)[C@@H](O)[C@H](O)[C@H]3O)c2)[C@H](O)[C@@H](O)[C@@H]1O` [ternatin D1]: the “Detection in rat plasma/blood” value in series [1] was “not detected”.
Turning to benzoic acid-4-glucuronide [M19], in series [2], the Location entry is listed as “S, U”.
cyanidin-3-(p-coumaroyl) glucose: in series [2], the Location result is listed as “S” and the “Detected in serum and/or urine” value was “serum”.
With “delphinidin-3-p-coumaroyl-rutinoside-5-glucoside [nasunin]”, the “Time of rapid peak in rat plasma (postprandial)” value in series [3] was 15 min.
